Test results from patent US20230416329A1, “A PEPTIDE WITH DISULFIDE BONDS AND INHIBITORY ACTIVITY AGAINST SERINE PROTEASES, DERIVED HYBRID PEPTIDES THEREOF, AND USES THEREOF” (INSTITUTE OF MATERIA MEDICA , CHINESE ACADEMY OF MEDICAL …, priority 2020, published 2023).
Bridge positions count the residues as written; N and C are the ends. Ends that are not written are not given here.

How the values were obtained:
[1] = test system: P407-induced hyperlipidemia mice; assay: Subcutaneous injection of PCSK9 inhibitory peptide, serum total cholesterol in P407-induced hyperlipidemia mice; format: in vivo, mouse; conditions: for serum total cholesterol (TC) level after subcutaneous injection (in words): 2 μmol/kg single s.c., P407-induced hyperlipidemia mice; for TC 15 min / TC 30 min / TC 60 min / TC 90 min: serum, subcutaneous 2 μmol/kg, mean ± sd; for TC 15 min: 15 min after administration; for TC 30 min: 30 min after administration; for TC 60 min: 60 min after administration; for TC 90 min: 90 min after administration
In short: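 ICR mice, fasted overnight, received intraperitoneal P407 at 500 mg/kg. After 24 h they received subcutaneous peptide at 2 μmol/kg in 20% PEG400; vehicle-treated and normal groups served as controls. Serum total cholesterol was measured at various times after dosing.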

[2] = test system: P407 induced hyperlipidemia mice; assay: Duodenal injection of PCSK9 inhibitory peptide, serum total cholesterol in P407 induced hyperlipidemia mice; format: in vivo, mouse; conditions: for hypolipidemic activity after duodenal administration (in words): 20 μmol/kg, P407 induced hyperlipidemia mice; for TC 15 min / TC 30 min / TC 60 min / TC 90 min: serum, duodenal injection 20 μmol/kg, mean ± sd
Protocol: The experimental polypeptide sample was prepared using PEG400 with a final concentration of 20 μmol/kg and the final concentration of PEG400 is 50% (w/v). The control group was saline containing PEG400 (50%).
Normal ICR mice were fasted overnight with water ad libitum. The next day, all of the mice were intraperitoneally injected with poloxamer 407 (P407, 500 mg/kg) to establish a model of lipid metabolism disorder. Six mice were intraperitoneally injected with saline as a normal control (Nor). Normal feeding resumed after 2 hours. The model animals were randomly divided into model group (Con) and polypeptide groups according to body weight, and the blood was collected from tail tip (0 min). Then, the animals were anesthetized with ether for duodenal exposure surgery. At the same time, a sample or saline containing PEG400 was injected through the duodenum. Finally, the wound was sutured. The blood was collected from tail tip at 15, 30, 60, and 90 minutes after administration to determine the serum total cholesterol level.

[3] = biological target: T1, interaction of PCSK9-LDLR (Homo sapiens, UniProt Q8NBP7); assay: PCSK9-LDLR in vitro binding assay (inhibitory rate); conditions: in vitro
T1 construct: purchased MBL Company, Beijing, China CY-8150
In short: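 Polypeptide (final 50 μM) pre-incubated 20 min at room temperature with PCSK9 (final 75 ng/mL), then run in a PCSK9-LDLR binding kit read at OD450/540 nm. Inhibition rate calculated relative to a solvent control (water or DMSO) lacking polypeptide.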

Substance	serum total cholesterol (TC) level after subcutaneous injection (in words) [1]	serum total cholesterol (TC) level after subcutaneous injection (in words) ([1]; listed as SEQ ID NO: 230)	TC 15 min [1]	TC 30 min [1]	TC 60 min [1]	TC 90 min [1]	hypolipidemic activity after duodenal administration (in words) [2]	TC 15 min [2]	TC 30 min [2]	TC 60 min [2]	TC 90 min [2]	inhibitory activity on the interaction between PCSK9 and LDLR (in words) [3]	inhibitory activity on the interaction between PCSK9 and LDLR (in words) ([3]; listed as SEQ ID NO: 230)	serum total cholesterol (TC) level after subcutaneous injection (in words) ([1]; listed as SEQ ID NO: 231)	inhibitory activity on the interaction between PCSK9 and LDLR (in words) ([3]; listed as SEQ ID NO: 231)
Trp-Glu-Glu-Tyr-Leu-Asp-Tyr-Val-Gly-Phe-Cys-Thr-Tyr-Ser-Ile-Pro-Pro-Gln-Cys-Tyr-Gly-Thr-Val-Phe-Thr-Ser (WEEYLDYVGFCTYSIPPQCYGTVFTS; disulfide 11-19 (inferred)) [PCSK9_6CH]	reduced serum TC level	excellent lowering lipid (total cholesterol) activities in vivo	3201 ± 1389 µg/mL	3363 ± 865 µg/mL	2691 ± 979 µg/mL	2655 ± 954 µg/mL	did not show hypolipidemic activity	2742 ± 651 µg/mL	3071 ± 590 µg/mL	3127 ± 567 µg/mL	2986 ± 650 µg/mL	good inhibitory activity on the interaction between PCSK9 and LDLR	good inhibitory effects in vitro	–	–
Trp-Glu-Glu-Tyr-Leu-Asp-Tyr-Val-Gly-Ile-Cys-Thr-Ala-Ser-Ile-Pro-Pro-Ile-Cys-Gln-Gly-Thr-Val-Phe-Thr-Ser (WEEYLDYVGICTASIPPICQGTVFTS; disulfide 11-19 (inferred)) [PCSK9_6EC]	reduced serum TC level	–	2438 ± 610 µg/mL	2369 ± 574 µg/mL	2345 ± 638 µg/mL	2274 ± 586 µg/mL	did not show hypolipidemic activity	3166 ± 343 µg/mL	2931 ± 673 µg/mL	3239 ± 515 µg/mL	3177 ± 443 µg/mL	good inhibitory activity on the interaction between PCSK9 and LDLR	–	excellent lowering lipid (total cholesterol) activities in vivo	good inhibitory effects in vitro
